Data reported in patent US10689354B2, “Aminoazole derivative” (Teijin Pharma Limited, priority 2015, dated 2020).

Experiments:
[1] = target: T1, androgen receptor (AR-LBD) (Rattus norvegicus, UniProt P15207); assay: Evaluation of androgen receptor affinity (PolarScreen Androgen Receptor Competitor Assay Kit, Red; fluorescence polarization); conditions: 22° C. for 5 hours, relative to binding rate of 1 μM DHT, read-out: AR affinity (pEC50) (converted)
T1 construct: 5 μL of 2×AR-LBD/Fluoromone AL Red Complex contained in the kit; purchased Invitrogen
T1 sequence (P15207 651-882 limits assumed): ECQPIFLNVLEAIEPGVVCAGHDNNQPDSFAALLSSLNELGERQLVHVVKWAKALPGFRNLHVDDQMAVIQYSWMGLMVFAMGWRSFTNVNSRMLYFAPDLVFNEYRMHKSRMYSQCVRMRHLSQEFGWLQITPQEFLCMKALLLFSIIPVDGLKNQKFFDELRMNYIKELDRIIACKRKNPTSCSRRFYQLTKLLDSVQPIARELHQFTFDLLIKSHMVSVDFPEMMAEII
Outline: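 Test compound and the 2× AR-LBD/Fluoromone AL Red complex were combined in duplicate wells. After reacting 5 h at 22° C, polarization was measured. pEC50 was derived by 4-parameter fitting, normalizing to binding obtained with 1 μM dihydrotestosterone.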

human androgen receptor = target: T2, human androgen receptor (Homo sapiens, UniProt P10275); assay: Reporter assay of an androgen receptor responsive sequence (luciferase, transiently transfected HEK293 cells); assay type: cell-based; conditions: 24 hours incubation, relative to activity of 100 nM DHT, read-out: AR transcriptive activity (pEC50) (converted)
T2 construct: expressed in transfected cells; host or cells: HEK293
T2 sequence (P10275 1-920): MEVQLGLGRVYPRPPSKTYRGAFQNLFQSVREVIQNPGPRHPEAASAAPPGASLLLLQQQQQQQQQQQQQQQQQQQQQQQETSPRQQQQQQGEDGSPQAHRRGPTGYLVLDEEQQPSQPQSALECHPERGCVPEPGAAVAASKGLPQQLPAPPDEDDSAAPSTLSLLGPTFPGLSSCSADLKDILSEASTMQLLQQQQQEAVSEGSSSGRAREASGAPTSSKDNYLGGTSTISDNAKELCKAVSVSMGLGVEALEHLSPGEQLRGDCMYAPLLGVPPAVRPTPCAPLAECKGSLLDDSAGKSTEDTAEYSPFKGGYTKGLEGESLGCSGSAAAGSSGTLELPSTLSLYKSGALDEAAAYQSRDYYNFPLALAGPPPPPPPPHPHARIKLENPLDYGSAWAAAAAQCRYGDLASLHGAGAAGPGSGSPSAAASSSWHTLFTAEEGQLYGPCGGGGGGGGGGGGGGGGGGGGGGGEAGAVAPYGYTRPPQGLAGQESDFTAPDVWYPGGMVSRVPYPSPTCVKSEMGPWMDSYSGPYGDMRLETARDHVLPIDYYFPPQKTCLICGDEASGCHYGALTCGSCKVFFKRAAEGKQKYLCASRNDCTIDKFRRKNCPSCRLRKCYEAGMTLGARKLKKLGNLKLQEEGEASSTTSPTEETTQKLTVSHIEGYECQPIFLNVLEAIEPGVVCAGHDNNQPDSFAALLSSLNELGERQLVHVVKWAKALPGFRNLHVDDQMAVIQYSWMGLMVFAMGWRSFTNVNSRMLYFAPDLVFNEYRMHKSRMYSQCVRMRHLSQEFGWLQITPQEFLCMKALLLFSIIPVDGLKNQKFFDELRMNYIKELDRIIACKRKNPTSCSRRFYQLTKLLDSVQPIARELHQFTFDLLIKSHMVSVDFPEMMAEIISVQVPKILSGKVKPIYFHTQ
Outline: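 Agonism scored as pEC50, fitted by 4-parameter curve against the response to 100 nM DHT, from dual-luciferase readout after 24 h compound treatment. Cells were HEK293 co-transfected (3 h) with human AR expression vector, androgen-responsive firefly reporter and Renilla control, in charcoal-stripped serum.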

| EC50 [1] [nM] | EC50 (human androgen receptor) [nM] | SMILES |
| --- | --- | --- |
| 1000 | > 10000 | CCS(=O)(=O)NC(=O)c1nc(N(CCc2ccc(C#N)cc2)CC2CCCCC2)sc1C [Compound 717, 2-[2-(4-cyanophenyl)ethyl-(cyclohexylmethyl)amino]-N-ethylsulfonyl-5-methyl-thiazole-4-carboxamide] |
| 126 | 316 | COCCCS(=O)(=O)NC(=O)c1nc(N(Cc2ncc(Br)cc2F)c2ccc(C#N)cc2)sc1C [Compound 535, 2-[N-[(5-bromo-3-fluoro-2-pyridyl)methyl]-4-cyano-anilino]-N-(3-methoxypropylsulfonyl)-5-methyl-thiazole-4-carboxamide] |
| 50.1 | 1580 | COc1ccc(CCN(Cc2ccccc2)c2nc(C(=O)NS(C)(=O)=O)c(C)s2)cc1 [Compound 678, 2-[benzyl-[2-(4-methoxyphenyl)ethyl]amino]-5-methyl-N-methylsulfonyl-thiazole-4-carboxamide] |
| 1260 | 3980 | COCCCS(=O)(=O)NC(=O)c1nc(N(Cc2nc(C3CC3)no2)c2ccc(C#N)cc2)sc1C [Example 197, 2-[4-cyano-N-[(3-cyclopropyl-1,2,4-oxadiazol-5-yl)methyl]anilino]-N-(3-methoxypropylsulfonyl)-5-methyl-thiazole-4-carboxamide] |
| 794 | 501 | COc1ccc(CN(c2ccc(C#N)cc2)c2nc(C(=O)NS(C)(=O)=O)c(C)s2)nc1 [Compound 515, 2-[4-cyano-N-[(5-methoxy-2-pyridyl)methyl]anilino]-5-methyl-N-methylsulfonyl-thiazole-4-carboxamide] |
| 126 | 200 | Cc1sc(N(Cc2cccc3cccnc23)c2ccc(C#N)cc2)nc1C(=O)NS(C)(=O)=O [Compound 390, 2-[4-cyano-N-(8-quinolylmethyl)anilino]-5-methyl-N-methylsulfonyl-thiazole-4-carboxamide] |
| 251 | 3980 | Cc1oc(N(CCc2ccccc2)c2ccc(C#N)cc2)nc1C(=O)NS(C)(=O)=O [Compound 625, 2-[4-cyano-N-(2-phenylethyl)anilino]-5-methyl-N-methylsulfonyl-oxazole-4-carboxamide] |
| 251 | 1260 | Cc1sc(N(CCc2cccc(C#N)c2)Cc2ccccc2)nc1C(=O)NS(C)(=O)=O [Compound 672, 2-[benzyl-[2-(3-cyanophenyl)ethyl]amino]-5-methyl-N-methylsulfonyl-thiazole-4-carboxamide] |
| 25.1 | 126 | Cc1oc(N(CCc2ccc(C#N)cc2)Cc2ccc(Cl)cc2)nc1C(=O)NS(C)(=O)=O [Compound 548, 2-[(4-chlorophenyl)methyl-[2-(4-cyanophenyl)ethyl]amino]-5-methyl-N-methylsulfonyl-oxazole-4-carboxamide] |
| 31.6 | 31.6 | Cc1sc(N(Cc2ccc(OC(F)F)cc2)c2ccc(C#N)cc2)nc1C(=O)NS(C)(=O)=O [Compound 41, 2-[4-cyano-N-[[4-(difluoromethoxy)phenyl]methyl]anilino]-5-methyl-N-methylsulfonyl-thiazole-4-carboxamide] |
| 631 | 1580 | Cc1sc(N(Cc2ccccc2)c2ccc3ncsc3c2)nc1C(=O)NS(C)(=O)=O [Compound 335, 2-[1,3-benzothiazol-6-yl(benzyl)amino]-5-methyl-N-methylsulfonyl-thiazole-4-carboxamide] |
| 50.1 | 631 | Cc1sc(N(Cc2cccs2)c2ccc(C#N)cc2)nc1C(=O)NS(C)(=O)=O [Compound 77, 2-[4-cyano-N-(2-thienylmethyl)anilino]-5-methyl-N-methylsulfonyl-thiazole-4-carboxamide] |
| 158 | > 10000 | COCCCS(=O)(=O)NC(=O)c1nc(N(CCc2ccc(OC(F)(F)F)cc2)Cc2ccc(Cl)cn2)oc1C [Compound 564, 2-[(5-chloro-2-pyridyl)methyl-[2-[4-(trifluoromethoxy)phenyl]ethyl]amino]-N-(3-methoxypropylsulfonyl)-5-methyl-oxazole-4-carboxamide] |
| 50.1 | 100 | Cc1sc(N(Cc2ccc3c(c2)OCCO3)c2ccc(C#N)cc2)nc1C(=O)NS(C)(=O)=O [Compound 123, 2-[4-cyano-N-(2,3-dihydro-1,4-benzodioxin-6-ylmethyl)anilino]-5-methyl-N-methylsulfonyl-thiazole-4-carboxamide] |
| 63.1 | 126 | Cc1sc(N(Cc2cc(F)cc(Cl)c2)c2ccc(C#N)cc2)nc1C(=O)NS(C)(=O)=O [Compound 99, 2-[N-[(3-chloro-5-fluoro-phenyl)methyl]-4-cyano-anilino]-5-methyl-N-methylsulfonyl-thiazole-4-carboxamide] |
| 31.6 | 398 | Cc1sc(N(Cc2ccc(OCc3ccccc3)cc2)c2ccc(C#N)cc2)nc1C(=O)NS(C)(=O)=O [Compound 393, 2-[N-[(4-benzyloxyphenyl)methyl]-4-cyano-anilino]-5-methyl-N-methylsulfonyl-thiazole-4-carboxamide] |
| 158 | 316 | Cc1sc(N(Cc2cc(F)ccc2F)c2ccc(C#N)cc2)nc1C(=O)NS(C)(=O)=O [Compound 103, 2-[4-cyano-N-[(2,5-difluorophenyl)methyl]anilino]-5-methyl-N-methylsulfonyl-thiazole-4-carboxamide] |
| 39.8 | > 10000 | CS(=O)(=O)NC(=O)c1nc(N(Cc2ccc(Cl)cc2)c2ccc(C#N)cc2)oc1C1CC1 [Compound 646, 2-[N-[(4-chlorophenyl)methyl]-4-cyano-anilino]-5-cyclopropyl-N-methylsulfonyl-oxazole-4-carboxamide] |
| 794 | 1260 | Cc1sc(N(Cc2ncccc2O)c2ccc(C#N)cc2)nc1C(=O)NS(C)(=O)=O [Compound 492, 2-[4-cyano-N-[(3-hydroxyl-pyridyl)methyl]anilino]-5-methyl-N-methylsulfonyl-thiazole-4-carboxamide] |
| 25.1 | 158 | CCc1oc(N(Cc2ccc(Br)c(F)c2)c2ccc(C#N)cc2)nc1C(=O)NS(C)(=O)=O [Compound 652, 2-[N-[(4-bromo-3-fluoro-phenyl)methyl]-4-cyano-anilino]-5-ethyl-N-methylsulfonyl-oxazole-4-carboxamide] |
| 25.1 | 50.1 | CSc1ccc(CN(c2ccc(C#N)cc2)c2nc(C(=O)NS(C)(=O)=O)c(C)s2)cc1 [Compound 11, 2-[4-cyano-N-[(4-methylsulfanylphenyl)methyl]anilino]-5-methyl-N-methylsulfonyl-thiazole-4-carboxamide] |
| 63.1 | 501 | Cc1sc(N(Cc2ccc(F)cc2OC(F)F)c2ccc(C#N)cc2)nc1C(=O)NS(C)(=O)=O [Example 176, 2-[4-cyano-N-[[2-(difluoromethoxy)-4-fluoro-phenyl]methyl]anilino]-5-methyl-N-methylsulfonyl-thiazole-4-carboxamide] |
| 251 | > 10000 | COc1cccc(CCN(c2ccc(C#N)cc2)c2nc(C(=O)NS(C)(=O)=O)c(C)s2)c1 [Compound 399, 2-[4-cyano-N-[2-(3-methoxyphenyl)ethyl]anilino]-5-methyl-N-methylsulfonyl-thiazole-4-carboxamide] |
| 39.8 | 316 | CS(=O)(=O)NC(=O)c1nc(N(Cc2ccc(F)cc2)c2ccc(C(F)(F)F)nc2)sc1Br [Example 282, 5-bromo-2-[(4-fluorophenyl)methyl-[6-(trifluoromethyl)-3-pyridyl]amino]-N-methylsulfonyl-thiazole-4-carboxamide] |
| 79.4 | > 10000 | Cc1sc(N(Cc2ccccc2)c2ccc(C#N)cc2)nc1C(=O)NS(=O)(=O)CCc1ccccc1 [Compound 391, 2-(N-benzyl-4-cyano-anilino)-5-methyl-N-(2-phenylethylsulfonyl)thiazole-4-carboxamide] |
